# Earlier results in patent US4533546A, “Antiinflammatory analgesic gelled ointments” (Lederle (Japan), Ltd., priority 1983, dated 1985).
# Tests used:
# digestive organs = conditions: oral, background statement in words
# [1] = in water and various pharmaceutically acceptable solvents; in words
Structure (SMILES),side-effects (digestive organs),solubility [1]
O=C(O)Cc1ccc(-c2ccccc2)cc1 [4-biphenylylacetic acid],side-effects on the digestive organs,insoluble or only sparingly soluble in water and various pharmaceutically acceptable solvents
CC(C)Cc1ccc(CC(=O)O)cc1 [ibufenac],side-effects on the digestive organs,–
CC(C)Cc1ccc(C(C)C(=O)O)cc1 (centres unmarked) [ibuprofen],side-effects on the digestive organs,–
COc1ccc2c(c1)c(CC(=O)O)c(C)n2C(=O)c1ccc(Cl)cc1 [indomethacin],side-effects on the digestive organs,–
